What all share (assay type): in vivo
Assay [1] deals with DIO mice (C57Bl/6J male mice). In words: Insulin resistance (HOMA-IR), 36 days assay in DIO mice. To be noted: 50 mg/kg orally twice daily for 36 days, days 1, 8, 15, 22, 29 and 36, vs saline control, similar to metformin 150 mg/kg. The protocol:
To assess the performance of the compounds disclosed in decreasing insulin resistance, DIO mice (C57Bl/6J male mice) were treated with hydrochloride salts of compounds 4a, 5a; and with compound 7a during 36 days, versus a control treated with saline (0.9% NaCl) and versus DIO mice treated with metformin as a positive control.
(§1) For the assessment, 60 C57Bl/6 J male mice (16-week-old at delivery and 40 g of average weight), obtained from Charles River France put on high fat diet for 10 weeks. The animals were housed in ventilated and enriched housing cages (310×125×127 mm^3) throughout the experimental phase. Animals' cages litters were changed at least once a week. Mice were housed in groups of 10 mice on a normal 12 hours light cycle (at 08:00 pm lights were switched off), at 22±2° C. and 50±10% relative humidity. After reception, mice were maintained for three additional acclimation weeks. During the whole test (acclimation+treatment phase) a high fat diet (D12492 purchased from Research Diet Inc.; 60% fat) and tap water were provided ad libitum.
After the acclimation period, mice were fasted for 6 hours and blood glucose and plasma insulin were measured. Ten animals, those with lower blood glucose/plasma insulin, were discarded from the study. […]
Body weight were weekly measured as well as blood glucose and plasma insulin after a 6 hour-fasting.
Blood glucose was measured by sampling blood from the tip of the tail: a drop of blood is collected and placed on a glucometer strip (Accu-Check® glucometer, Roche, Switzerland). Plasma insulin was detected via ELISA (Elisa Kit, Eurobio, France) using 5 μl samples.
The Homeostatic model assessment-insulin resistance index (HOMA-IR), which is used to quantify insulin resistance, was calculated from fasting blood glucose, and plasma insulin values as follows: HOMA-IR=(mM glucose×μU/mL insulin)/22.5, being this constant a normalizing factor (Matthews et al., 1985, Diabetologia 28(7), 412-9).

Assay [2] deals with DIO mice (C57Bl/6J male mice). Kind of assay: Liver weight, 36 days assay in DIO mice. To be noted: 50 mg/kg orally twice daily, after 36 days, vs saline control and metformin 150 mg/kg. As to the method: To assess the performance of the compounds disclosed decreasing liver overweight, DIO mice (C57Bl/6J male mice) were treated with compounds 4a and 5a during 36 days, versus a control of DIO mice treated with vehicle (0.9% NaCl) and DIO mice treated with Metformin as a positive control.
as §1, with “C57Bl/6J” for “C57Bl/6 J”, “France, were” for “France”, “(D12492;” for “(D12492”, “Inc” for “Inc.;”
After the acclimation period, mice were fasted for 6 hours and blood glucose and plasma insulin were measured. Ten animals, those with lower blood glucose/plasma insulin, were discarded from the study. Then, the others were randomized into 5 homogenous groups (n=10 mice per group) according to their blood glucose/plasma insulin levels (HOMA-IR) and body weight. […]

Assay [3] deals with DIO mice (C57Bl/6 J male mice). In words: Liver lipid content, 36 days assay in DIO mice (colorimetric kits). The following applies: 50 mg/kg orally twice daily, after 36 days, vs saline control. The protocol:
To assess the performance of the compounds disclosed in decreasing hepatic lipid content, DIO mice (C57Bl/6 J male mice) were treated with a hydrochloride salt of compound 4a; and with compound 7a during 36 days, versus a control of DIO mice treated with saline (0.9% NaCl) and versus DIO mice treated with Metformin as a positive control.
as §1, with “France, were” for “France”, “assessment” for “test”, “Inc;” for “Inc.;”
After the acclimation period, mice were fasted for 6 hours and blood glucose and plasma insulin were measured. Ten animals, those with lower blood glucose/plasma insulin, were discarded from the study. Then, the others were randomized into 5 homogenous groups (n=10 mice per group) according to their blood glucose/plasma insulin levels (HOMA-IR) and body weight. Mice were treated orally twice daily for 36 days with either saline solution (control group), SJT test compound (4a, 7a; 50 mg/kg) or metformin (150 mg/kg).
Finally, mice were sacrificed, and liver was collected, weighted and stored at −80° C. for additional analysis. Liver samples were dissected for liver lipids assay. Liver lipids were assayed using colorimetric commercial assay kits, from liver samples homogenate after lipid solubilization in deoxycholate as described by Miao et al., J Lipid Res, 2004, 45, 1410-17. Samples were homogenized with an ultrasound probe with 500 μl distilled water during few seconds. Then cholic acid at 1% is added to make lipids soluble. The measurement of the different lipids was then performed using colorimetric kits from Sobioda, France.

As to `COc1ccc(-c2nc(C(=O)NCCCN)cc3c2[nH]c2ccccc23)cc1` [Compound 5a, N(-propylamine)-1-benzosubstituted-β-carboline-3-carboxamide], the “insulin resistance (HOMA-IR)” value in assay [1] is reported as “lower insulin resistance compared to the control animals”. Also, the “liver weight (liver overweight)” value in assay [2] is recorded as “lower liver weight than either mice treated with metformin or than the control animals”.
In the case of `COc1ccc(-c2nc(C(=O)N/N=C/c3ccccc3)cc3c2[nH]c2ccccc23)cc1` [Compound 7a, 3-(carbohydrazyl-N′-phenylsubstitute)-1-benzosubstitute-β-carbolinic-3-carbohydrazide], the “insulin resistance (HOMA-IR)” value in assay [1] is listed as “lower insulin resistance compared to the control animals”. Besides, in assay [3], the hepatic cholesterol entry is reported as “lower lipid levels than untreated control animals”, the hepatic fatty acids result is reported as “lower lipid levels than untreated control animals” and the hepatic triglycerides result is on record as “lower lipid levels than untreated control animals”.

(Values after patent US10857136B2, “Compounds for use in the prevention and/or treatment of non-alcoholic fat liver disease and non-alcoholic steatohepatitis” (SJT MOLECULAR RESEARCH, SL, priority 2017, dated 2020).)
